Common to all, as to test: 3H-TdR (3H-thymidine) incorporation assay at 72 hr
Assay [1] relates to SF-268. It is filed as cell-based, Human. As to conditions: 3H-TdR incorporation at 72 hr.
Assay [2] deals with CCRF-CEM. The class given is cell-based. As to conditions: 3H-TdR incorporation at 72 hr. Here is the method:
(§1) Table of IC50 Values (μM) for Controls
(§2) Exposition of 24 hr to drug, wash, incubated for another 48 hr (total of 72 hr assay)
(§3) (3H-Thymidine Incorporation Assay)

In assay [3] the test system is CEM/dCK-. The class given is cell-based. To be noted: for IC50: Homo sapiens, CCRF-CEM, read-out: IC50 CEM/dCK- 24 h, 24 h drug exposure, wash, another 48 hr, deoxycytidine kinase-deficient CCRF-CEM; for Factor* (Resistance Factor = Ratio of dCK- on Wild-type CCRF-CEM): ratio of IC50 CEM/dCK- to CCRF-CEM, 24 h. How it is done:
as §1, §2, §3

Assay [4] deals with H-460. It is filed as cell-based, Human. As to conditions: 3H-TdR incorporation at 72 hr.
For assay [5], the system named is MCF-7. It is filed as cell-based, Human. To be noted: 3H-TdR incorporation at 72 hr.
The mark [6] stands for this setting: Homo sapiens, SF-268, read-out: IC50 SF-268 24 h, 24 h drug exposure, wash, another 48 hr.
[7] abbreviates: Homo sapiens, CCRF-CEM, read-out: IC50 CCRF-CEM 24 h, 24 h drug exposure, wash, another 48 hr.
The mark [8] stands for this setting: Homo sapiens, NCI-H460, read-out: IC50 H-460 24 h, 24 h drug exposure, wash, another 48 hr.
The mark [9] stands for this setting: Homo sapiens, MCF7, read-out: IC50 MCF-7 24 h, 24 h drug exposure, wash, another 48 hr.

Where two headings read alike, the source gives them in different places.

As for `Nc1ccn([C@@H]2CO[C@H](COC3Sc4ccccc4S3)O2)c(=O)n1` [Compound 138, 4-AMINO-1-[2- (BENZO[1,3]DITHIOL-2- YLOXYMETHYL)- [1,3]DIOXOLAN-4-YL]-1H- PYRIMIDIN-2-ONE], the IC50 in assay [1] (setting [6]) was determined as 2100 nM; in assay [2] (setting [7]) it was 530 nM; in assay [3] it was 58000 nM; in assay [4] (setting [8]), 920 nM; in assay [5] (setting [9]), 1500 nM. Moreover, the “Factor* (Resistance Factor = Ratio of dCK- on Wild-type CCRF-CEM)” value in assay [3] came out at 109.
On to `COC(OC)(OC[C@H]1OC[C@@H](n2ccc(N)nc2=O)O1)c1ccccc1` [Compound 139, 4-AMINO-1-[2- (DIMETHOXY-PHENYL- METHOXYMETHYL)- [1,3]DIOXOLAN-4-YL]-1H- PYRIMIDIN-2-ONE], for which the IC50 in assay [1] (setting [6]) was 1300 nM; in assay [1] (read-out: IC50 SF-268 24 h, 24 h drug exposure, wash, another 48 hr), 1700 nM; in assay [2] (setting [7]), 400 nM; in assay [2] (read-out: IC50 CCRF-CEM 24 h, 24 h drug exposure, wash, another 48 hr), 420 nM; in assay [3], over 100000 nM; in assay [4] (setting [8]), 810 nM. Further, the IC50 in assay [4] (read-out: IC50 H-460 24 h, 24 h drug exposure, wash, another 48 hr) amounted to 510 nM; in assay [5] (setting [9]) it was 1400 nM; in assay [5] (read-out: IC50 MCF-7 24 h, 24 h drug exposure, wash, another 48 hr) it was 1700 nM. The “Factor* (Resistance Factor = Ratio of dCK- on Wild-type CCRF-CEM)” value in assay [3] is recorded as over 250.
As to `CN(Cc1ccccc1)C(=O)OC[C@H]1OC[C@@H](n2ccc(N)nc2=O)O1` [Compound 140, BENZYL-METHYL-CARBAMIC ACID 4-(4-AMINO-2-OXO- 2H-PYRIMIDIN-1-YL)- [1,3]DIOXOLAN-2- YLMETHYL ESTER], the IC50 in assay [1] (setting [6]) is 3000 nM; in assay [2] (setting [7]) it was 11000 nM; in assay [3], over 100000 nM; in assay [4] (setting [8]), 10000 nM; in assay [5] (setting [9]), 20000 nM. Further, the “Factor* (Resistance Factor = Ratio of dCK- on Wild-type CCRF-CEM)” value in assay [3] is recorded as over 9.
Take `CCCCC(OC)(OC)OC[C@H]1OC[C@@H](n2ccc(N)nc2=O)O1` [Compound 141, 4-AMINO-1-[2-(1,1- DIMETHOXY- PENTYLOXYMETHYL)- [1,3]DIOXOLAN-4-YL]-1H- PYRIMIDIN-2-ONE]: the IC50 in assay [1] (setting [6]) stood at 40 nM; in assay [2] (setting [7]), 19 nM; in assay [3], 69000 nM; in assay [4] (setting [8]) it was 34 nM; in assay [5] (setting [9]), 66 nM. Moreover, in assay [3], the “Factor* (Resistance Factor = Ratio of dCK- on Wild-type CCRF-CEM)” value is on record as 3,632.
Turning to `CN(C)/C=N/c1ccn([C@@H]2CO[C@H](COC(=O)C(C)(C)c3ccccc3)O2)c(=O)n1` [Compound 142, (2S,4S)-2-(2″- DIMETHYLPHENYLACETOXY)M ETHYL-4-(4′-N,N- DIMETHYLAMINOMETHYLENE- CYTOSTN-1,-YL)-1,3- DIOXOLANE], the IC50 worked out at 130 nM in assay [1] (setting [6]); 7.2 nM in assay [2] (setting [7]); 46000 nM in assay [3]; 38 nM in assay [4] (setting [8]); 29 nM in assay [5] (setting [9]). The “Factor* (Resistance Factor = Ratio of dCK- on Wild-type CCRF-CEM)” value in assay [3] is 6,389.
For `CN(C)/C=N/c1ccn([C@@H]2CO[C@H](COC(=O)Cc3ccc(N(C)C)cc3)O2)c(=O)n1` [Compound 143, (2S,4S)-2-(4″-N,N- DIMETHYLAMINOPHENYLACET OXY)METHYL-4-(4′-N,N- DIMETHYLAMINOMETHYLENE- CYTOSIN-1′-YL)-1,3- DIOXOLANE], the IC50 stood at 140 nM in assay [1] (setting [6]); 3.9 nM in assay [2] (setting [7]); 32000 nM in assay [3]; 12 nM in assay [4] (setting [8]); 3.7 nM in assay [5] (setting [9]). For the same compound, the “Factor* (Resistance Factor = Ratio of dCK- on Wild-type CCRF-CEM)” value in assay [3] is reported as 8,205.
In the case of `O=c1nc(NC2(c3ccccc3)c3ccccc3Oc3ccccc32)ccn1[C@@H]1CO[C@H](COC2(c3ccccc3)c3ccccc3Oc3ccccc32)O1` [Compound 144, 4-(9-PHENYL-9#H!- XANTHEN-9-YLAMINO)-1- [2-(9-PHENYL-9#H!- XANTHEN-9-YLOXYMETHYL)- [1,3]DIOXOLAN-4-YL]- 1#H!-PYRIMIDIN-2-ONE], the IC50 in assay [1] (setting [6]) amounted to 1900 nM; in assay [2] (setting [7]), 710 nM; in assay [3], 78000 nM; in assay [4] (setting [8]), 3000 nM; in assay [5] (setting [9]) it was 5200 nM. In addition, the “Factor* (Resistance Factor = Ratio of dCK- on Wild-type CCRF-CEM)” value in assay [3] is listed as 110.
Turning to `Nc1ccn([C@@H]2CO[C@H](COC3(c4ccccc4)c4ccccc4Oc4ccccc43)O2)c(=O)n1` [Compound 146, 4-AMINO-1-[2-(9-PHENYL- 9#H!-XANTHEN-9- YLOXYMETHYL)- [1,3]DIOXOLAN-4-YL]- 1#H!-PYRIMIDIN-2-ONE], the IC50 turned out to be 28 nM in assay [1] (setting [6]); 130 nM in assay [2] (setting [7]); 50000 nM in assay [3]; 780 nM in assay [4] (setting [8]); 1200 nM in assay [5] (setting [9]). The “Factor* (Resistance Factor = Ratio of dCK- on Wild-type CCRF-CEM)” value in assay [3] came to 385.
With `Nc1ccn([C@@H]2CO[C@H](COC(=S)Oc3ccccc3)O2)c(=O)n1` [Compound 147, THIOCARBONIC ACID O- [4(S)-(4′-AMINO-2′-OXO- 2H-PYRIMIDIN-1′-YL)- [1,3]DIOXOLAN-2(S)- YLMETHYL] ESTER O- PHENYL ESTER], the IC50 in assay [1] (setting [6]) was 17 nM; in assay [2] (setting [7]) it was 25 nM; in assay [3], over 100000 nM; in assay [4] (setting [8]), 60 nM; in assay [5] (setting [9]) it was 110 nM. Also, in assay [3], the “Factor* (Resistance Factor = Ratio of dCK- on Wild-type CCRF-CEM)” value is reported as over 4000.
Take `CCCCCCOC(=O)Nc1ccn([C@@H]2CO[C@H](COC(=O)OCCCCCC)O2)c(=O)n1` [Compound 150, CARBONIC ACID HEXYL ESTER 4-(4- HEXYLOXYCARBONYLAMINO- 2-OXO-2H-PYRIMIDIN-1- YL)-[1,3]DIOXOLAN-2- YLMETHYL ESTER]: the IC50 in assay [1] (setting [6]) came out at 1300 nM; in assay [2] (setting [7]), 130 nM; in assay [3] it was 90000 nM; in assay [4] (setting [8]) it was 960 nM; in assay [5] (setting [9]), 1600 nM. For the same compound, the “Factor* (Resistance Factor = Ratio of dCK- on Wild-type CCRF-CEM)” value in assay [3] is recorded as 692.
For the compound `O=c1nc(NCn2nnc3ccccc32)ccn1[C@@H]1CO[C@H](CO)O1` [Compound 152, 4-[(BENZOTRIAZOL-1- YLMETHYL)-AMINO]-1-(2- HYDROXYMETHYL- [1,3]DIOXOLAN-4-YL)-1H- PYRIMIDIN-2-ONE], the IC50 was 31000 nM in assay [1] (setting [6]); 790 nM in assay [2] (setting [7]); over 100000 nM in assay [3]; 3500 nM in assay [4] (setting [8]); 3000 nM in assay [5] (setting [9]). For the same compound, in assay [3], the “Factor* (Resistance Factor = Ratio of dCK- on Wild-type CCRF-CEM)” value is over 127.
Consider `O=C(Nc1ccn([C@@H]2CO[C@H](COC(=O)c3ccccc3)O2)c(=O)n1)OCc1ccccc1` [Compound 153, BENZOIC ACID 4-(4- BENZYLOXYCARBONYLAMINO- 2-OXO-2H-PYRIMIDIN-1- YL)-[1,3]DIOXOLAN-2- YLMETHYL ESTER], for which the IC50 in assay [1] (setting [6]) is 59000 nM; in assay [2] (setting [7]) it was 210 nM; in assay [3] it was over 100000 nM; in assay [4] (setting [8]), 46000 nM; in assay [5] (setting [9]) it was 39000 nM. Besides, the “Factor* (Resistance Factor = Ratio of dCK- on Wild-type CCRF-CEM)” value in assay [3] is over 476.
For the compound `CC(C)(OCc1ccccc1)OC[C@H]1OC[C@@H](n2ccc(N)nc2=O)O1` [Compound 154, 4-AMINO-1-[2-(1- BENZYLOXY-1-METHYL- ETHOXYMETHYL)- [1,3]DIOXOLAN-4-YL]-1H- PYRIMIDIN-2-ONE], the IC50 in assay [1] (setting [6]) was 4400 nM; in assay [2] (setting [7]), 140 nM; in assay [3], over 100000 nM; in assay [4] (setting [8]), 760 nM; in assay [5] (setting [9]), 1600 nM. In addition, the “Factor* (Resistance Factor = Ratio of dCK- on Wild-type CCRF-CEM)” value in assay [3] was over 714.
Take `CC(C)C(C(=O)OC[C@H]1OC[C@@H](n2ccc(N)nc2=O)O1)N(C)C` (stereo partly drawn) [Compound 156, (2S,4S)-2-(N,N- DIMETHYL-L- VALINYLOXYMETHYL)-4- CYTOSIN-1′-YL-1,3- DIOXOLANE]: the IC50 in assay [1] (setting [6]) was found to be 930 nM; in assay [2] (setting [7]) it was 7 nM; in assay [3] it was 81000 nM; in assay [4] (setting [8]) it was 120 nM; in assay [5] (setting [9]) it was 68 nM. Also, the “Factor* (Resistance Factor = Ratio of dCK- on Wild-type CCRF-CEM)” value in assay [3] is on record as 11,571.
On to `CC(C(=O)OC[C@H]1OC[C@@H](n2ccc(N)nc2=O)O1)C(c1ccccc1)c1ccccc1` (stereo partly drawn) [Compound 157, (2S,4S)-(3″-DIPHENYL- 2″- METHYLPROPIOXYMETHYL)- 4-CYTOSIN-1′-YL-1,3- DIOXOLANE], for which the IC50 in assay [1] (setting [6]) is 2200 nM; in assay [2] (setting [7]) it was 12 nM; in assay [3], over 100000 nM; in assay [4] (setting [8]) it was 24 nM; in assay [5] (setting [9]), 550 nM. Also, in assay [3], the “Factor* (Resistance Factor = Ratio of dCK- on Wild-type CCRF-CEM)” value was over 8333.
As to `O=C(Nc1ccn([C@@H]2CO[C@H](COC(=O)OCCCCCl)O2)c(=O)n1)OCCCCCl` [Compound 159, CARBONIC ACID 4-[4-(4- CHLORO- BUTOXYCARBONYLAMINO)-2- OXO-2H-PYRIMIDIN-1-YL]- [1,3]DIOXOLAN-2- YLMETHYL ESTER 4- CHLORO-BUTYL ESTER], the IC50 in assay [1] (setting [6]) was 1600 nM; in assay [2] (setting [7]) it was 380 nM; in assay [3] it was over 100000 nM; in assay [4] (setting [8]), 870 nM; in assay [5] (setting [9]), 720 nM. Further, the “Factor* (Resistance Factor = Ratio of dCK- on Wild-type CCRF-CEM)” value in assay [3] is over 263.

For the origin of these results see patent publication US20030013660A1, “Dioxolane analogs for improved inter-cellular delivery” (Shire BioChem Inc., priority 2000, published 2003).
